Values of other authors as cited in patent US20020001575A1, “Nutritional system for nervous system disorders” (priority 2000, published 2002).

Conditions: autistic children and adults, 18 consecutive studies 1965-1996

For Vitamin B-6, the helpfulness in autism is given as “helpful in almost half of all autistic children and adults”.
